These results are taken from PubChem BioAssay AID200 (DTP/NCI, 2004).

The test system of the test is B6C3F1 mice, B16 melanoma ip, median survival T/C. Put plainly: NCI In Vivo Anticancer Drug Screen. Data for tumor model B16 Melanoma (intraperitoneal) in B6C3F1 mice. The note with it: endpoint: median survival time, schedule: Q01DX009 (ip), higher = longer survival. An outline of the steps: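 Values are T/C ratios: the measurement in treated animals divided by that in vehicle-treated controls, using survival or tumor size in mice carrying transplantable tumors.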

Where [1] appears, read: dose: 12.5 mg/kg/injection, vehicle: saline.
Setting [2] is: dose: 25.0 mg/kg/injection, vehicle: saline.
[3] abbreviates: dose: 50.0 mg/kg/injection, vehicle: saline.
The mark [4] stands for this setting: dose: 100.0 mg/kg/injection, vehicle: saline.
Where [5] appears, read: dose: 200.0 mg/kg/injection, vehicle: saline.
[6] abbreviates: dose: 400.0 mg/kg/injection, vehicle: saline.
Where [7] appears, read: dose: 12.5 mg/kg/injection, vehicle: saline with Tween-80.
Where [8] appears, read: dose: 25.0 mg/kg/injection, vehicle: saline with Tween-80.
[9] abbreviates: dose: 50.0 mg/kg/injection, vehicle: saline with Tween-80.
Setting [10] is: dose: 100.0 mg/kg/injection, vehicle: saline with Tween-80.
The mark [11] stands for this setting: dose: 200.0 mg/kg/injection, vehicle: saline with Tween-80.
Setting [12] is: dose: 400.0 mg/kg/injection, vehicle: saline with Tween-80.
Where [13] appears, read: dose: 100.0 mg/kg/injection, vehicle: Klucel (hydroxypropylcellulose) (HPC).
Where [14] appears, read: dose: 200.0 mg/kg/injection, vehicle: Klucel (hydroxypropylcellulose) (HPC).

Where “and” joins values, the source holds several entries; their conditions need not be identical. Equal entries are not always repeated. Inconclusive results and toxic doses are left out.

Take `C=C(OC1C(C)=C2C(C1OC(=O)CCCCCCC)C(C)(OC(C)=O)CC(OC(=O)CCC)C1(O)C2OC(=O)C1(C)O)/C(C)=C/C` (stereo unspecified): the T/C was 99 % of control (dose: 0.09 mg/kg/injection, vehicle: Klucel (hydroxypropylcellulose) (HPC)); 114 % of control (dose: 0.18 mg/kg/injection, vehicle: Klucel (hydroxypropylcellulose) (HPC)); 102 % of control (dose: 0.37 mg/kg/injection, vehicle: Klucel (hydroxypropylcellulose) (HPC)); 114 % of control (dose: 0.75 mg/kg/injection, vehicle: Klucel (hydroxypropylcellulose) (HPC)).

Turning to `CN=C(N)N/N=C(\C)c1ccc2c(c1)Cc1cc(/C(C)=N/NC(N)=NC)ccc1-2`, the T/C by setting is: (dose: 0.75 mg/kg/injection, vehicle: saline with Tween-80) 97 % of control; (dose: 1.5 mg/kg/injection, vehicle: saline with Tween-80) 101 % of control.

For `NCCSC(C[N+](=O)[O-])c1ccccc1Cl` (stereo unspecified), the T/C reads like this: (dose: 6.25 mg/kg/injection, vehicle: saline) 103 % of control; under setting [1], 114 % of control; under setting [2], 93 % of control.

With `COC1=CC(=O)c2c(O)cc(OC)c(O)c2C1=O`, the T/C reads like this: (dose: 1.25 mg/kg/injection, vehicle: saline with Tween-80) 105 % of control; (dose: 2.5 mg/kg/injection, vehicle: saline with Tween-80) 121 % of control; (dose: 5.0 mg/kg/injection, vehicle: saline with Tween-80) 121 % of control; (dose: 10.0 mg/kg/injection, vehicle: saline with Tween-80) 121 % of control.

As for `OCCCN1CCCCC1CO` (stereo unspecified), the T/C by setting is: under setting [1], 94 % of control; under setting [2], 106 % of control; under setting [3], 99 % of control; under setting [4], 105 % of control; under setting [5], 101 % of control; under setting [6], 111 % of control and 101 % of control. Moreover, the T/C (dose: 800.0 mg/kg/injection, vehicle: saline) was 112 % of control.

For the compound `BrC1CC(Br)c2c1c1c(c3c2C(Br)CC3Br)C(Br)CC1Br` (stereo unspecified), the T/C under setting [7] was 108 % of control and 105 % of control; the T/C under setting [8] was 114 % of control and 117 % of control and 123 % of control; the T/C under setting [9] was 114 % of control; the T/C under setting [10] is 118 % of control and 93 % of control; the T/C under setting [11] was 123 % of control.

As to `Cn1cnc([N+](=O)[O-])c1SCC(=O)O`, the T/C was 104 % of control under setting [7]; 109 % of control under setting [1]; 89 % of control under setting [8]; 114 % of control under setting [2]; 103 % of control under setting [9]; 122 % of control under setting [3]. In addition, the T/C was 98 % of control under setting [10]; 108 % of control under setting [4]; 97 % of control under setting [11]; 104 % of control under setting [5]; 97 % of control under setting [12]; 99 % of control under setting [6].

As to `O=c1[nH]cccc1O`, the T/C is, setting by setting: (dose: 16.0 mg/kg/injection, vehicle: saline with Tween-80) 101 % of control; (dose: 32.0 mg/kg/injection, vehicle: saline with Tween-80) 92 % of control; (dose: 64.0 mg/kg/injection, vehicle: saline with Tween-80) 93 % of control; (dose: 128.0 mg/kg/injection, vehicle: saline with Tween-80) 105 % of control; (dose: 256.0 mg/kg/injection, vehicle: saline with Tween-80) 99 % of control.

As for `NC(CSCc1ccccc1)C(=O)Nc1ccc([N+](=O)[O-])cc1` (stereo unspecified), the T/C runs as follows: under setting [13], 115 % of control; under setting [14], 111 % of control; (dose: 400.0 mg/kg/injection, vehicle: Klucel (hydroxypropylcellulose) (HPC)) 116 % of control.

For `NS(=O)(=O)OCCCCCCCOS(N)(=O)=O`, the T/C is 115 % of control under setting [7] and 171 % of control under setting [9].

For the compound `COc1ccc([C@@]23Oc4cc(OC)cc(OC)c4[C@]2(O)[C@H](O)[C@H](C(=O)N(C)C)[C@H]3c2ccccc2)cc1`, the T/C (dose: 0.25 mg/kg/injection, vehicle: Klucel (hydroxypropylcellulose) (HPC)) is 97 % of control; the T/C (dose: 0.5 mg/kg/injection, vehicle: Klucel (hydroxypropylcellulose) (HPC)) is 119 % of control and 91 % of control and 106 % of control; the T/C (dose: 1.0 mg/kg/injection, vehicle: Klucel (hydroxypropylcellulose) (HPC)) was 112 % of control and 117 % of control; the T/C (dose: 2.0 mg/kg/injection, vehicle: Klucel (hydroxypropylcellulose) (HPC)) is 103 % of control and 104 % of control and 106 % of control.

In the case of `C=C1C(=O)C2=CC1CCC(=O)C1(C)CCC(OC(C)=O)C(C)(C)C1CC2O` (stereo unspecified), the T/C is 96 % of control (dose: 1.88 mg/kg/injection, vehicle: Klucel (hydroxypropylcellulose) (HPC)); 104 % of control and 106 % of control (dose: 3.75 mg/kg/injection, vehicle: Klucel (hydroxypropylcellulose) (HPC)); 111 % of control and 89 % of control (dose: 7.5 mg/kg/injection, vehicle: Klucel (hydroxypropylcellulose) (HPC)); 114 % of control and 100 % of control (dose: 15.0 mg/kg/injection, vehicle: Klucel (hydroxypropylcellulose) (HPC)); 118 % of control and 104 % of control (dose: 30.0 mg/kg/injection, vehicle: Klucel (hydroxypropylcellulose) (HPC)).

As for `CCC(CC)COC(=O)c1ccccc1C(=O)OCC(CC)CC`, the T/C was 98 % of control (dose: 3.12 mg/kg/injection, vehicle: saline with Tween-80); 97 % of control and 106 % of control (dose: 6.25 mg/kg/injection, vehicle: saline with Tween-80); 110 % of control and 90 % of control and 107 % of control under setting [7]; 91 % of control and 96 % of control and 103 % of control under setting [8]; 89 % of control and 96 % of control and 97 % of control under setting [9]; 93 % of control and 97 % of control under setting [10]. For the same compound, the T/C under setting [11] was 106 % of control and the T/C under setting [12] is 104 % of control.

Consider `CCOC(=O)c1ccc(NC(=O)Nc2nc(C)cs2)cc1`, for which the T/C (dose: 12.5 mg/kg/injection, vehicle: distilled water + Tween-80) was 120 % of control and the T/C (dose: 25.0 mg/kg/injection, vehicle: distilled water + Tween-80) was 120 % of control.

For `O=C(NNC(=O)c1cccc(C(=O)NNC(=O)c2ccc(Cl)c(Cl)c2)n1)c1ccc(Cl)c(Cl)c1`, the T/C was 94 % of control and 105 % of control (dose: 12.5 mg/kg/injection, vehicle: Klucel (hydroxypropylcellulose) (HPC)); 102 % of control (dose: 25.0 mg/kg/injection, vehicle: Klucel (hydroxypropylcellulose) (HPC)); 91 % of control and 102 % of control (dose: 50.0 mg/kg/injection, vehicle: Klucel (hydroxypropylcellulose) (HPC)); 94 % of control and 103 % of control under setting [13]; 105 % of control under setting [14].

For `OC(CCl)CN1CC[N+]2(CC1)CC[N+]1(CCN(CC(O)CCl)CC1)CC2` (stereo unspecified), the T/C by setting is: (dose: 4.68 mg/kg/injection, vehicle: saline) 118 % of control; (dose: 9.37 mg/kg/injection, vehicle: saline) 106 % of control; under setting [1], 172 % of control; (dose: 18.75 mg/kg/injection, vehicle: saline) 98 % of control; under setting [2], 183 % of control; (dose: 37.5 mg/kg/injection, vehicle: saline) 106 % of control.

For the compound `O=c1c(O)c(-c2ccc(O)c(O)c2)oc2cc(O)cc(O)c12`, the T/C (dose: 12.5 mg/kg/injection, vehicle: suspension in saline) is 103 % of control; the T/C (dose: 25.0 mg/kg/injection, vehicle: suspension in saline) was 107 % of control; the T/C (dose: 50.0 mg/kg/injection, vehicle: suspension in saline) was 102 % of control; the T/C (dose: 100.0 mg/kg/injection, vehicle: suspension in saline) was 109 % of control.
